Experimental findings from patent US20240109853A1 (Shanghai Yao Yuan Biotechnology Co., Ltd., priority 2020, published 2024) are described below.

Counter-ions that a name gives are not always drawn. Like-named read-outs stand apart in the source and are kept apart here.

This experiment has as its target ALPK1 (Homo sapiens (Human), UniProt Q96QP1). Description: ALPK1 in vitro kinase assay (HTRF of TIFA phosphorylation). The class given is biochemical. An excerpt: In embodiments, a compound of Formula I, or a subembodiment described herein, is an inhibitor of ALPK1 as measured, for example, in an in vitro kinase assay, or an assay designed to measure the activation of downstream targets of ALPK1 pathway activation, for example NFkB transcriptional activation and the secretion of proinflammatory cytokines and chemokines, such as IL-8, which is also referred to as CXCL-8. In general, the computer program XL fit was used for data analysis, including non-linear regression analysis. The half maximal inhibitory concentration (IC50) was used as the measure of a compound's effectiveness in the assays. IC50 values were determined using the following logistic equation Y=min+(max−min)/(1+(X/IC50^−hillslpoe), where Y is the value at the compound concentration, X. The concentration response curve fitting was conducted using GraphPad Prism version 6.00 software.
ALPK1 kinase activity was measured in an in vitro assay using ADP-Heptose as the ALPK1 ligand and activator of its kinase activity and TIFA protein as the ALPK1 phosphorylation substrate. Since phosphorylated TIFA proteins oligomerize, Homogeneous Time-Resolved Fluorescence (HTRF) was used to measure protein:protein interaction between HA-tagged TIFA proteins as an indicator of TIFA phosphorylation.
In brief, dose-response studies were performed with HEK293 cells cultured in Dulbecco's Modified Eagle Medium (DMEM) supplemented 10% fetal bovine serum (FBS, Hyclone™) containing antibiotics (pen/strep, G418) in 384-well assay plates. Each well contained 0.1 mg TIFA, ALPK1 (2 nM final concentration in reaction mixture) and kinase buffer (100 mM of HEPES pH 7.4, 4 mM DTT, 40 mM MgCl2, 20 mM of β-Glycerol phosphate disodium salt, 0.4 mM of Na3VO4, 0.16 mg/mL). Titrations of the test compounds were prepared in dimethylsulphoxide (DMSO). The reaction was initiated by addition of ATP and ADP-Heptose.
For HTRF, samples were incubated with a Tb cryptate-labeled anti-HA antibody for capturing HA-tagged proteins according to the manufacturer's instructions (PerkinElmer™, CisBio™) and the fluorescence signal was quantified (Tecan Infinite F NANO+). HTRF signals were calculated as the HTRF ratio (ratio of fluorescence measured at 665 nm and 620 nm)×104 (thereby using the signal at 620 nm as an internal standard).
IC50 values were determined using 3- or 4-parameter logistic equation using GraphPad Prism version 6.00. The reference compound, A027, was used as a positive control for each plate.
For orientation: TR-FRET usually uses a lanthanide donor and a delayed reading to cut background.

Where [1] appears, read: ALPK1 2 nM, TIFA substrate, ADP-Heptose activator, HTRF readout.

ALPK1, sequence (Q96QP1 whole entry): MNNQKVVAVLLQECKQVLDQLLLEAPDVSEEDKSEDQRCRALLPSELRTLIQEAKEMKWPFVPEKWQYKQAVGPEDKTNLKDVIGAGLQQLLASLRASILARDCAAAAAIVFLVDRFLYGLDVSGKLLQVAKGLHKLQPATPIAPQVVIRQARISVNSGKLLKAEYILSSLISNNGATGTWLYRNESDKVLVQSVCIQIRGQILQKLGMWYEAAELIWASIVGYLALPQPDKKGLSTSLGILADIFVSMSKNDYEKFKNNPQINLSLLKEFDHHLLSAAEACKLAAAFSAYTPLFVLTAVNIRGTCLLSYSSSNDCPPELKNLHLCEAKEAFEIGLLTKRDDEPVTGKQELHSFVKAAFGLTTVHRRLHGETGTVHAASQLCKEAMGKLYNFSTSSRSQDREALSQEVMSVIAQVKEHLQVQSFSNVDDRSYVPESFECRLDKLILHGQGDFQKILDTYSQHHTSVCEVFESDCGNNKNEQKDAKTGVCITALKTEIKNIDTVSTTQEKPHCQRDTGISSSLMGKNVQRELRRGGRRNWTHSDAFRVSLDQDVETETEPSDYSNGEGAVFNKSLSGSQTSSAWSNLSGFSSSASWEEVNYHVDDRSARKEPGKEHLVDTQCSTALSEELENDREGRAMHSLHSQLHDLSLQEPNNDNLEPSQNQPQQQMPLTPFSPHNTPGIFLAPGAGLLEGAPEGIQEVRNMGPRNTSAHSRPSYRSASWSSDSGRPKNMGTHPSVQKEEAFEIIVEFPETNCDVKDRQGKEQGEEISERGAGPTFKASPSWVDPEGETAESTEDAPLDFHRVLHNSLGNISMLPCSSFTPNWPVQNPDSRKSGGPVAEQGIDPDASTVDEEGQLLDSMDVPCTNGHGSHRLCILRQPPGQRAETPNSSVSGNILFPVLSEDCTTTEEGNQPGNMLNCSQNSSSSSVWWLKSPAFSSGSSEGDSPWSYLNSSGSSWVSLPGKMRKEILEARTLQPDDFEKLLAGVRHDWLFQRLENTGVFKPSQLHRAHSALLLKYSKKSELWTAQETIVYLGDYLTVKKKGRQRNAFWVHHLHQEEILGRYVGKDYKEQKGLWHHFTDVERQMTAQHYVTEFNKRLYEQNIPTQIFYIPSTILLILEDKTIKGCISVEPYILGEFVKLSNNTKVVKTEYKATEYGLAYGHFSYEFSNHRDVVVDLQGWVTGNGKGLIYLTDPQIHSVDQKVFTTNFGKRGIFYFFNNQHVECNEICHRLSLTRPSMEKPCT

The term IC50 denotes the concentration that gives 50% inhibition. High values mean weaker potency, low ones greater potency. Under setting [1], `C#CC(C)(c1ccc(OC)cc1)c1csc(NC(=O)c2c(F)cc(N3CCNC(CO)C3)cc2F)n1` (centres unmarked) [Example B084, 2,6-difluoro-4-(3-(hydroxymethyl)piperazin-1-yl)-N-(4-(2-(4-methoxyphenyl)but-3-yn-2-yl)thiazol-2-yl)benzamide] returned an IC50 of 28 nM.

Turning to `C#C[C@](C)(c1ccc(Cl)cc1)c1csc(NC(=O)c2c(F)cc(N3CCC(N)C3)cc2F)n1` (some centres unmarked) [Example B086], under setting [1], the IC50 came out at 286 nM. `COCC(C)(c1ccc(Cl)cc1)c1csc(NC(=O)c2c(F)cc(N3CCNCC3)cc2F)n1` (centres unmarked) [Example C029, N-(4-(2-(4-chlorophenyl)-1-methoxypropan-2-yl)thiazol-2-yl)-2,6-difluoro-4-(piperazin-1-yl)benzamide] returned an IC50 under setting [1] of 128 nM. On the same count and under the same terms, the figure for `COc1ccc(C(C)(C)c2csc(NC(=O)c3ccc(NCCO)cc3)n2)cc1` [Example B060, 4-((2-hydroxyethyl)amino)-N-(4-(2-(4-methoxyphenyl)propan-2-yl)thiazol-2-yl)benzamide] is 280 nM; for `CC(c1ccc(Cl)cc1)(c1csc(NC(=O)c2c(F)cc(N3CCNCC3)cc2F)n1)C1CC1` (centres unmarked) [Example C045, N-(4-(1-(4-chlorophenyl)-1-cyclopropylethyl)thiazol-2-yl)-2,6-difluoro-4-(piperazin-1-yl)benzamide] it is 25 nM. In turn, `Cc1ccc(C(C)(C)c2csc(NC(=O)c3ccc(N4CCNCC4)nc3)n2)cc1` [Example B045, 6-(piperazin-1-yl)-N-(4-(2-(p-tolyl)propan-2-yl)thiazol-2-yl)nicotinamide] came in with an IC50 under setting [1] of 30 nM.

Compound `COc1ccc(C(C)(C)c2csc(NC(=O)c3ccc(CN4CCN(C)CC4)cc3)n2)cc1` [Example B017, N-(4-(2-(4-methoxyphenyl)propan-2-yl)thiazol-2-yl)-4-((4-methylpiperazin-1-yl)methyl)benzamide] returned an IC50 under setting [1] of 148 nM. Same read-out and setting: the figure for `C#C[C@@](C)(c1ccc(Cl)cc1)c1csc(NC(=O)c2c(F)cc(N3CCNCC3CO)cc2F)n1` (stereo in doubt) [Example B097, N-[4-[1-(4-chlorophenyl)-1-methyl-prop-2-ynyl]thiazol-2-yl]-2,6-difluoro-4-[2-(hydroxymethyl)piperazin-1-yl]benzamide] is 119 nM; for `C#CC(C)(c1ccc(Cl)cc1)c1csc(NC(=O)c2c(F)cc(N3CCNCC3CC)cc2F)n1` (centres unmarked) [Example B101, N-(4-(2-(4-chlorophenyl)but-3-yn-2-yl)thiazol-2-yl)-4-(2-ethylpiperazin-1-yl)-2,6-difluorobenzamide] it is 70 nM.

For `COc1ccc(C(C)(C)c2csc(NC(=O)c3ccc(OC4CCN(CCO)CC4)cc3)n2)cc1` [Example B020, 4-((1-(2-hydroxyethyl)piperidin-4-yl)oxy)-N-(4-(2-(4-methoxyphenyl)propan-2-yl)thiazol-2-yl)benzamide], under setting [1], the IC50 came out at 170 nM. Consider `COc1ccc(C(C)(C)c2csc(NC(=O)c3ccc(N4CCN(CCO)CC4)cc3)n2)cc1` [Example B006, 4-(4-(2-hydroxyethyl)piperazin-1-yl)-N-(4-(2-(4-methoxyphenyl)propan-2-yl)thiazol-2-yl)benzamide], for which the IC50 under setting [1] came to 595 nM. For `COc1ccc(C(C)(C)c2csc(NC(=O)c3ccc(N4CCC(O)C4)cc3)n2)cc1` (centres unmarked) [Example B009, 4-(3-hydroxypyrrolidin-1-yl)-N-(4-(2-(4-methoxyphenyl)propan-2-yl)thiazol-2-yl)benzamide], half-maximal inhibition under setting [1] (IC50) required 951 nM. Under setting [1], `C#CC(C)(c1ccc(Cl)cc1)c1csc(NC(=O)c2c(F)cc(N3CCN(C)CC3)cc2F)n1` (centres unmarked) [Example C009, N-(4-(2-(4-chlorophenyl)but-3-yn-2-yl)thiazol-2-yl)-2,6-difluoro-4-(4-methylpiperazin-1-yl)benzamide] displayed an IC50 of 7 nM. `CC(C)(c1ccc(Br)cc1)c1csc(NC(=O)NCc2cnc(N3CCNC(=O)C3)c(F)c2)n1` [Example A112, 1-(4-(2-(4-bromophenyl)propan-2-yl)thiazol-2-yl)-3-((5-fluoro-6-(3-oxopiperazin-1-yl)pyridin-3-yl)methyl)urea] gave an IC50 of 334 nM. As for `COC[C@](C)(c1ccc(Cl)cc1)c1csc(NC(=O)c2c(F)cc(N3CCNCC3)cc2F)n1` [Example C024, (R)-N-(4-(2-(4-chlorophenyl)-1-methoxypropan-2-yl)thiazol-2-yl)-2,6-difluoro-4-(piperazin-1-yl)benzamide], under setting [1], half-maximal inhibition (IC50) was put at 130 nM. Under setting [1], `COc1ccc(C(C)(C)c2csc(NC(=O)c3cccc(OCCCN4CCNCC4)c3)n2)cc1` [Example B023, N-(4-(2-(4-methoxyphenyl)propan-2-yl)thiazol-2-yl)-3-(3-(piperazin-1-yl)propoxy)benzamide] came in with an IC50 of 150 nM. As for `CC(C)(c1ccc(Br)cc1)c1csc(NC(=O)c2ccc(C(N)=O)cc2)n1` [Example B003, N-(4-(2-(4-bromophenyl)propan-2-yl)thiazol-2-yl)terephthalamide], under setting [1], the IC50 stood at 192 nM. The IC50 values of the last two compounds are within 1.5-fold of each other. `C#CC(C)(c1ccc(Cl)cc1)c1csc(NC(=O)N(C)CCO)n1` (centres unmarked) [Example A266, 3-(4-(2-(4-chlorophenyl)but-3-yn-2-yl)thiazol-2-yl)-1-(2-hydroxyethyl)-1-methylurea]: the IC50 was determined as 546 nM. That is a sub-micromolar value. As for `COc1ccc(C(C)(C)c2csc(NC(=O)c3ccc(N4CCC(N(C)C)C4)cc3)n2)cc1` (centres unmarked) [Example B027, 4-(3-(dimethylamino)pyrrolidin-1-yl)-N-(4-(2-(4-methoxyphenyl)propan-2-yl)thiazol-2-yl)benzamide], the IC50 under setting [1] amounted to 219 nM. This counts as sub-micromolar. Same read-out and setting: the figure for `COCCOc1cc(C(=O)Nc2nc(C(C)(C)c3ccc(OC)cc3)cs2)ccc1N1CCNCC1` [Example B057, 3-(2-methoxyethoxy)-N-(4-(2-(4-methoxyphenyl)propan-2-yl)thiazol-2-yl)-4-(piperazin-1-yl)benzamide hydrochloride] is 103 nM. On to `COc1ccc(C(C)(C)c2csc(NC(=O)c3cccc(N4CCNCC4)c3)n2)cc1` [Example B004, N-(4-(2-(4-methoxyphenyl)propan-2-yl)thiazol-2-yl)-3-(piperazin-1-yl)benzamide], for which half-maximal inhibition under setting [1] (IC50) was put at 211 nM. `COc1ccc(C(C)(C)c2csc(NC(=O)NCCCCN)c2)cc1` [Example A188, 1-(4-aminobutyl)-3-(4-(2-(4-methoxyphenyl)propan-2-yl)thiophen-2-yl)urea] had an IC50 of 59 nM. In turn, `C#CC(C)(c1ccc(F)cc1)c1csc(NC(=O)c2c(F)cc(-c3c[nH]n(C)c3=O)cc2F)n1` (centres unmarked) [Example B103, 2,6-difluoro-N-(4-(2-(4-fluorophenyl)but-3-yn-2-yl)thiazol-2-yl)-4-(2-methyl-3-oxo-2,3-dihydro-1H-pyrazol-4-yl)benzamide] displayed an IC50 under setting [1] of 5140 nM. For `CCOc1ccc(C(C)(C)c2csc(NC(=O)NCc3ccc(N4CCNCC4)cc3)n2)cc1` [Example A059, 1-(4-(2-(4-ethoxyphenyl)propan-2-yl)thiazol-2-yl)-3-(4-(piperazin-1-yl)benzyl)urea], the IC50 was 269 nM. As for `C#C[C@@](C)(c1ccc(Cl)cc1)c1nc(NC(=O)c2c(F)cc(N3CCNCC3)cc2F)sc1Cl` [Example C020, (S)-N-(5-chloro-4-(2-(4-chlorophenyl)but-3-yn-2-yl)thiazol-2-yl)-2,6-difluoro-4-(piperazin-1-yl)benzamide], the IC50 under setting [1] amounted to 88 nM. For the compound `COc1ccc(C(C)(C)c2csc(NC(=O)c3ccc(N4CCNCC4)cc3Cl)n2)cc1` [Example B008, 2-chloro-N-(4-(2-(4-methoxyphenyl)propan-2-yl)thiazol-2-yl)-4-(piperazin-1-yl)benzamide], half-maximal inhibition under setting [1] (IC50) was put at 37 nM. As to `Cc1ccc(C(C)(C)c2csc(NC(=O)c3ccc(CN4CCN(CCO)CC4)cc3)n2)cc1` [Example B058, 4-((4-(2-hydroxyethyl)piperazin-1-yl)methyl)-N-(4-(2-(p-tolyl)propan-2-yl)thiazol-2-yl)benzamide], under setting [1], inhibition was half-maximal at 68 nM (IC50).

In the case of `C#CC(C)(c1ccc(Cl)cc1)c1csc(NC(=O)c2c(Cl)cc(N3CCNCC3)cc2Cl)n1` (centres unmarked) [Example B096, 2,6-dichloro-N-(4-(2-(4-chlorophenyl)but-3-yn-2-yl)thiazol-2-yl)-4-(piperazin-1-yl)benzamide], half-maximal inhibition under setting [1] (IC50) required 312 nM. The same measure, in the same setting: the figure for `C#C[C@](C)(c1ccc(Cl)cc1)c1csc(NC(=O)c2ccc(N3CCNC(CO)C3)cc2)n1` (some centres unmarked) [Example B078, N-(4-(2-(4-chlorophenyl)but-3-yn-2-yl)thiazol-2-y1)-4-(3-(hydroxymethyl)piperazin-1-yl)benzamide] is 169 nM.
